{"source": "paper PMC9598531", "about": "(Biology, 2022)", "key": {"[1]": {"biological_target": "T1, human KMO (Homo sapiens, UniProt O15229)", "T1 sequence (O15229 whole entry)": "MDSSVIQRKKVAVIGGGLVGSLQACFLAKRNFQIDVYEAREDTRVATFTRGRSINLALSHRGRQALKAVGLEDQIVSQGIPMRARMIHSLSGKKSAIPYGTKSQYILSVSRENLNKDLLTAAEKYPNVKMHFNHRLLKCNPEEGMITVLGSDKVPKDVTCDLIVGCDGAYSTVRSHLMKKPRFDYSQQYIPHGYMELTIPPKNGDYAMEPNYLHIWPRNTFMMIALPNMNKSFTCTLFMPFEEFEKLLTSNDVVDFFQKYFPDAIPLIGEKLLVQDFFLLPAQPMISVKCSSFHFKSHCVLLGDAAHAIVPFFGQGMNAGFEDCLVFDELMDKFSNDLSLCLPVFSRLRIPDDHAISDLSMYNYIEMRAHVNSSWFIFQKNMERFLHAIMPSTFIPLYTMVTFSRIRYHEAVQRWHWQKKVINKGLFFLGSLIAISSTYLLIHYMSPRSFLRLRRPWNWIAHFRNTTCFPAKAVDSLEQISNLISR", "experiment": "KMO enzyme activity (inhibitor screening kit) assay", "type": "biochemical", "set-up": "purchased BPS Bioscience", "settings": "for inhibition at 100 µM: read-out: % inhibition of KMO enzyme activity; for pIC50: human KMO enzyme", "method": "The enzymatic assay was performed in duplicate. Ro 61-8048 was used as the positive control. The test compounds were dissolved in DMSO at 100 mM and diluted to 1 mM in assay buffer. A reaction mixture of assay buffer (50 μL), human KMO (20 μg/mL; 50 μL), test compounds (1 mM; 10 μL), and substrate (40 μL NADPH (10 mM) plus L-Kyn (20 mM)) were incubated in a 96-well plate at room temperature for 1.5 h. The absorbance was recorded at 340 nm. The enzyme activity was expressed as % activity as follows: % Activity=[(Abssample−Absblank)/(Abscontrol−Absblank)]×100\n% Inhibition was calculated by subtracting the % activity from 100%."}, "[2]": {"tested_on": "KMO", "settings": "KMO inhibitor; cited from earlier work"}, "[3]": {"biological_target": "T1, human KMO", "experiment": "KMO enzyme activity (inhibitor screening kit) assay", "type": "biochemical", "set-up": "purchased BPS Bioscience", "settings": "read-out: % inhibition of KMO"}, "[4]": {"biological_target": "T1, human KMO", "experiment": "SPR binding assay (Biacore T200)", "set-up": "purchased Cosmo Bio USA", "settings": "for Kon: association rate; for pKd: dissociation constant", "method": "The protein was manually immobilized on a Series S Sensor Chip CM5 based on an amine coupling method with minor modification. An SPR assay was conducted on the Biacore T200 SPR instrument (Cytiva; Marlborough, MA, USA). […] Ro 61-8048 stock solution (6 mM; dissolved in DMSO) was diluted into a series of concentrations ranging from 1.25 to 20 μM in the running buffer."}, "[5]": {"biological_target": "T1, human KMO", "experiment": "Competitive SPR binding assay", "settings": "for Experimental RU: CFA 75 μM, Ro 61-8048 5 μM, alone or combined", "description": "HBS-P+ (20 mM; 0.02 M HEPES, 0.3 M NaCl, 0.1% v/v surfactant P20; pH 7.4) containing 3% DMSO was used as the running buffer. […] Ro 61-8048 was prepared as a final concentration of 5 μM in running buffer. […] FO(A)=1/1+KDA/CA(1+CB/KDB);FO(B)=1/1+KDB/CB(1+CA/KDA) where CA and CB are the respective concentrations of both binders, and KDA and KDB represent the equilibrium dissociation constants of the binders. The FO values were used to calculate the theoretical RU representative of competing compounds using the following equation [23]: Robserved=FO(A)·Rmax(A)+FO(B)·Rmax(B)"}, "[6]": {"tested_on": "KMO", "set-up": "method as in PMID 28464785", "settings": "rat liver and kidney homogenates in vitro; cited from earlier work"}, "[7]": {"set-up": "method as in PMID 21640374", "settings": "cited from earlier work"}}, "note": "pIC50, pKd: −log10 of the molar value. Read-outs that look alike come from different tables or passages of the source."}
{"smiles": "CCCCCc1cc(O)c2c(c1)OC(C)(CCC=C(C)C)C=C2", "note": "(stereo not drawn) [CBC, cannabichromene]", "values": [{"measurement": "inhibition at 100 µM", "setting": "[1]", "value": 0, "unit": "%"}]}
{"smiles": "CCCCCc1cc(O)c(C/C=C(\\C)CCC=C(C)C)c(O)c1", "note": "[CBG, cannabigerol]", "values": [{"measurement": "inhibition at 100 µM", "setting": "[1]", "value": 1, "unit": "%"}]}
{"smiles": "NC(CC(=O)c1cccc([N+](=O)[O-])c1)C(=O)O", "note": "(stereo not drawn)", "values": [{"measurement": "pIC50", "setting": "[2]", "value": 6.05}]}
{"smiles": "COc1cc(-c2cc(=O)c3c(O)c(C/C=C(\\C)CCC=C(C)C)c(O)cc3o2)ccc1O", "note": "[CFA, cannflavin A]", "values": [{"measurement": "inhibition at 2.5 µM", "setting": "[3]", "value": 8.5, "unit": "%"}, {"measurement": "inhibition at 5 µM", "setting": "[3]", "value": 15, "unit": "%"}, {"measurement": "inhibition at 20 µM", "setting": "[3]", "value": 38, "unit": "%"}, {"measurement": "inhibition at 40 µM", "setting": "[3]", "value": 59, "unit": "%"}, {"measurement": "pIC50", "setting": "[1]", "value": 4.53}, {"measurement": "inhibition at 100 µM", "setting": "[1]", "value": 99, "unit": "%"}, {"measurement": "Kon", "setting": "[4]; SPR", "value": "0.3 ×10^3, 1/Ms"}, {"measurement": "pKd", "setting": "[4]; SPR", "value": 4.39}, {"measurement": "Koff", "setting": "[4]; SPR, dissociation rate", "value": "14.2 ×10^−3, 1/s"}, {"measurement": "kon", "setting": "[4]; SPR, read-out: association rate", "value": 300, "unit": "M⁻¹ s⁻¹"}, {"measurement": "Koff", "setting": "[4]; SPR, read-out: dissociation rate", "value": 0.0142, "unit": "s⁻¹"}, {"measurement": "binding response unit (RU)", "setting": "[4]; at 10 μM", "value": 5.6, "unit": "RU"}, {"measurement": "binding response unit (RU)", "setting": "[4]; at 19 μM", "value": 10.4, "unit": "RU"}, {"measurement": "binding response unit (RU)", "setting": "[4]; at 38 μM", "value": 17.9, "unit": "RU"}, {"measurement": "binding response unit (RU)", "setting": "[4]; at 150 μM", "value": 35.7, "unit": "RU"}, {"measurement": "binding response unit (RU)", "setting": "[4]; at 300 μM", "value": 40.7, "unit": "RU"}, {"measurement": "Experimental RU", "setting": "[5]", "value": 27, "unit": "RU"}, {"measurement": "binding mode of CFA and Ro 61-8048 to the KMO protein", "setting": "[5]; competitive SPR analysis", "value": "competitive, rather than non-competitive binding"}]}
{"smiles": "CCCCCc1cc(O)c2c(c1)OC(C)(C)c1ccc(C)cc1-2", "note": "[CBN, cannabinol]", "values": [{"measurement": "inhibition at 100 µM", "setting": "[1]", "value": 0, "unit": "%"}]}
{"smiles": "CCCCCc1cc(O)c2c(c1)OC(C)(C)[C@@H]1CC=C(C)C[C@@H]21", "note": "[Δ^8 THC, delta-8-Tetrahydrocannabinol]", "values": [{"measurement": "inhibition at 100 µM", "setting": "[1]", "value": 1, "unit": "%"}]}
{"smiles": "C=C(C)[C@@H]1CCC(C)=C[C@H]1c1c(O)cc(CCC)cc1O", "note": "[CBDV, cannabidivarin]", "values": [{"measurement": "inhibition at 100 µM", "setting": "[1]", "value": 0, "unit": "%"}]}
{"smiles": "CCCCCc1cc(O)c2c(c1)OC(C)(C)C1=C2C(O)C(C)(O)CC1", "note": "(stereo not drawn) [CBT, cannabitriol]", "values": [{"measurement": "% inhibition of KMO enzyme activity", "setting": "[1]; at 100 μM", "value": 11, "unit": "%"}]}
{"smiles": "COc1ccc(S(=O)(=O)Nc2nc(-c3cccc([N+](=O)[O-])c3)cs2)cc1OC", "note": "[Ro 61-8048, 3,4-Dimethoxy-[-N-4-(Nitrophenyl)Thiazol-2YL]-Benzenesulfonamide, reference compound]", "values": [{"measurement": "pIC50", "setting": "[6]", "value": 7.43}, {"measurement": "pIC50", "setting": "[1]", "value": 5.29}, {"measurement": "crossing of the blood brain barrier", "setting": "[7]", "value": "cannot cross the blood brain barrier"}, {"measurement": "Kon", "setting": "[4]; SPR", "value": "3.7 ×10^3, 1/Ms"}, {"measurement": "pKd", "setting": "[4]; SPR", "value": 4.96}, {"measurement": "Koff", "setting": "[4]; SPR, dissociation rate", "value": "38.5 ×10^−3, 1/s"}, {"measurement": "binding response unit (RU)", "setting": "[4]; at 1 μM", "value": 1.48, "unit": "RU"}, {"measurement": "binding response unit (RU)", "setting": "[4]; at 3 μM", "value": 2.99, "unit": "RU"}, {"measurement": "binding response unit (RU)", "setting": "[4]; at 10 μM", "value": 13.4, "unit": "RU"}, {"measurement": "binding response unit (RU)", "setting": "[4]; at 20 μM", "value": 27.0, "unit": "RU"}, {"measurement": "Experimental RU", "setting": "[5]", "value": 19, "unit": "RU"}]}
{"smiles": "C=C(C)[C@@H]1CCC(C)=C[C@H]1c1c(O)cc(CCCCC)cc1O", "note": "[CBD, cannabidiol, reference compound]", "values": [{"measurement": "inhibition at 100 µM", "setting": "[1]", "value": 6, "unit": "%"}]}
{"smiles": "O=C(O)[C@H]1C[C@@H]1C(=O)c1ccc(Cl)c(Cl)c1", "note": "[UPF-648]", "values": [{"measurement": "pIC50", "setting": "[2]", "value": 7.40}]}
{"smiles": "CCCCCc1cc(O)c(C/C=C(\\C)CCC=C(C)C)c(O)c1C(=O)O", "note": "[CBGA, cannabigerolic acid]", "values": [{"measurement": "inhibition at 100 µM", "setting": "[1]", "value": 1, "unit": "%"}]}
